“Also recorded” adds a separate entry of the source. Structures can show the parent of a compound that is named as a salt.
Key:
[1] = tested on: Harding-Passey melanoma; conditions: background art; cited from earlier work
[2] = background art; cited from earlier work
[3] = tested on: alveolar carcinoma of liver; conditions: background art; cited from earlier work
[4] = tested on: leukemia La; assay: Antitumor activity on grafted leukemia La in mice (ELS, kinetic criterion, chemotherapeutic index); type: in vivo, mouse; conditions: for Chemotherapeutic index I60 = LD10/ED60 / ELS (extension of average life span) / kinetic criterion (.chi.) = 1-.phi.t/.phi.c: La, C57Bl mice; for Chemotherapeutic index I60 = LD10/ED60: i/p
Text: (§1) For the determination of antitumor activity these compounds (I, II, III, IV), 5-fluorouracyl and Ftorafur were used in the same solvents as in the determination of toxicity.
(§2) The determination of antitumor activity was effected on grafted tumors of mice: leukemia L-1210, leukemia P-388, Leukemia La, melanoma B-16, adenocarcinoma 755 (Ca-755), as well as on grafted tumors of rats: Schwetz erythroleukosis, Walker carcinosarcoma (WCS), Geren carcinoma.
Leukemia La was grafted intraperitoneally using a suspension of leukemic cells in a physiological solution. The inoculum contained 10^8 of leukemia cells. […]
In the determination of the antitumor activity the test compounds were introduced in equitoxic doses.
(§3) The criterion of the antitumor activity for leukemia P-338, L-1210 and La is the extension of an average life span (ELS) of the test animals as compared to the control ones, expressed in percent and calculated by the formula: [formula] wherein Lt --life span of animals in the test group;
(§4) Lc --life span of animals in the control group, i.e. without administration of the test compounds.
(§5) The comparative assessment of the scope of therapeutic action is effected using chemotherapeutic indices I40, I60 and I100 : I40 =LD10 /ED40, I60 =LD10 /ED60 I100 =LD10 /ED100, where LD10 =dose causing death of 10% of the animals; ED40, ED60 and ED100 are effective doses causing extension of the animal's life span by 40, 60 and 100 percent respectively.

[5] = Toxicity (LD50), intraperitoneal administration, mongrel white mice, Burns method; type: in vivo, mouse
Text: Toxicity of the compounds according to the present invention has been determined on mongrel white mice in experimental intraperitoneal administration of these compounds and evaluated by the Burns method (using curves of accumulation of the animal death frequencies vs. dose).
As the toxicity characteristic use was made of the dose causing death of 50% of the animals employed for the experiment (LD50).
For the determination of toxicity of (1,3-bis-(2,2,5,5-tetramethyl-1-oxyl-Δ^3 -pyrrolin-3-oyl)-5-fluorouracyl(compound I), 1-(2,2,5,5-tetramethyl-1-oxyl-Δ^3 -pyrrolin-3-oyl)-5-fluorouracyl (compound II) and 3-(2,2,5,5-tetramethyl-1-oxyl-Δ^3 -pyrrolin-3-oyl)-5-fluorouracyl (compound III), these compounds were administered intraperitoneally in the form of an emulsion in a 10% aqueous solution of polyoxyethylsorbitan monooleate (Tween-80, Ferak Berlin West Germany).
For the determination of toxicity of sodium salt of 3-(2,2,5,5-tetramethyl-1-oxyl-Δ^3 -pyrrolin-3-oyl)-5-fluorouracyl (compound IV), Ftorafur and 5-fluorouracyl, these compounds were also administered intraperitoneally in the form of aqueous solutions.

[6] = tested on: melanoma B-16; assay: Antitumor activity on grafted melanoma B-16 in mice (inhibition of tumor volume gain); type: in vivo, mouse; conditions: for Inhibition of tumor volume gain: B-16, CBAF1 mice
Text: as §1, §2
(§6) In the determination of the antitumor activity the test compounds were introduced in equitoxic doses. Ftorafur was also used in the optimal dose which is equal to […].
(§7) As the criterion of antitumor activity on solid tumors used is the inhibition (I) of the tumor volume gain in comparison with the control, expressed in percent and calculated by the formula: [formula] wherein Vc --average volume of the tumor in the control,
(§8) Vt --average volume of the tumor in the experiment.

[7] = tested on: Walker carcinosarcoma; conditions: background art; cited from earlier work
[8] = tested on: adenocarcinoma 755; assay: Kinetic curves of tumor volume gain, adenocarcinoma 755 in mice (FIG. 2); conditions: C 57 B1 mice, equimolar single doses 0.2 mmol/kg i/p, daily over 10 days
Experimental: To reveal the antitumor activity and kinetic characteristic of the therapeutic effectiveness of compound (IV) and Ftorafur in the case of adenocarcinoma 755, a series of experiments was conducted on mice C 57 B1. Adenocarcinoma 755 was grafted using a tumor cell suspension in a physiological solution (dilution 1:1 by mass) and was administered hypodermally in the dose of 0.3 ml to each mouse. The test compounds were administered intraperitoneally, starting from the 1-st day after grafting of the tumor, daily over the period of 10 days.
The tumor volume increase (V) of adenocarcinoma 755 was determined in cm^3 for 28 days (.tau.).
In the kinetic curve 5 experimental points corresponding to the control experiment are conventionally shown as circles, while experimental points corresponding to the use of Ftorafur are conventionally shown as squares.

[9] = tested on: sarcoma 180; conditions: background art; cited from earlier work
[10] = tested on: Schwetz erythroleukosis; assay: Antitumor activity on grafted Schwetz erythroleukosis in rats; type: in vivo, rat; conditions: for Inhibition of tumor volume gain: mongrel rats, days 7-14
Text: as §1, §2, §6, §7, §8

[11] = tested on: adenocarcinoma 755 (Ca-755); assay: Antitumor activity on grafted adenocarcinoma 755 in mice; type: in vivo, mouse
Text: as §1, §2, §6, §7, §8

[12] = tested on: leukemia P-388; assay: Antitumor activity on grafted leukemia P-388 in mice; type: in vivo, mouse; conditions: for ELS (extension of average life span): control life span 10 days
Text: as §1, §2
Leukemia P-388 was grafted intraperitoneally, 10^6 cells in 0.2 ml of ascitic liquid.
as §6, §3, §4, §5

[13] = Reaction of aqueous solutions; type: physicochemical
[14] = tested on: grafted tumors; assay: Antitumor activity on grafted tumors, overall assessment; type: in vivo, mice and rats
Text: as §1, §2, §6, §3
As the criterion of antitumor activity on solid tumors used is the inhibition (I) of the tumor volume gain in comparison with the control, expressed in percent and calculated by the formula: [formula] wherein Vc --average volume of the tumor in the control, […]

[15] = Stability against hydrolysis; type: physicochemical; conditions: room temperature, pH 3 to 11, about 5 hours
[16] = tested on: leukemia La; assay: Kinetic curves of spleen mass, leukemia La in mice (FIG. 1); type: in vivo, mouse; conditions: equimolar single doses 0.2 mmol/kg i/p
Experimental: Leukemia La was grafted intraperitoneally by means of a suspension of leukemic cells in a physiological solution. The inoculum contained 10^8 of leukemic cells. Compound (IV), Ftorafur and 5-fluorouracyl were also administered intraperitoneally so that the first administration was effected 3 hours after the tumor grafting, and then--on a daily basis over the period of seven days.
Determined were the variations of mass (M) of mice spleen in g over 14 days (.tau.). The obtained data were used to plot a graph in coordinates M-.tau. represented in FIG. 1.

[17] = tested on: leukemia L-1210; assay: Antitumor activity on grafted leukemia L-1210 in mice; type: in vivo, mouse; conditions: for ELS (extension of average life span): control life span 7,5 days
Text: as §1, §2
Leukemia L-1210 was grafted intraperitoneally, 10^5 cells in 0.2 ml of ascitic liquid.
as §6, §3, §4, §5

[18] = Solubility; type: physicochemical; conditions: water
[19] = tested on: Walker carcinosarcoma (WCS); assay: Antitumor activity on grafted Walker carcinosarcoma in rats; type: in vivo, rat
Text: as §1, §2, §6, §7, §8

[20] = tested on: Geren carcinoma; assay: Antitumor activity on grafted Geren carcinoma in rats; type: in vivo, rat; conditions: mongrel rats, single dose 60 mg/kg i/p, days 7-16
Text: as §1, §2, §6, §7, §8

[21] = single dose 45 mg/kg i/p, days 1-6
[22] = Ca-755, C57Bl mice, single dose 65 mg/kg i/p, days 1-10

O=c1[nH]c(=O)n(C2CCCO2)cc1F (stereo not drawn) [Ftorafur, 1-(α-furanidyl)-5-fluorouracyl, reference compound]
activity in respect of Harding-Passey melanoma [1]: rather high activity | toxicity / side effects in words [2]: inhibits hemopoiesis and causes complications on the side of the gastro-intestinal tract | activity in respect of alveolar carcinoma of liver [3]: rather high activity | Chemotherapeutic index I60 = LD10/ED60 ([4]; days 1,5,9): 2.0 | ELS (extension of average life span) [4, 21]: 15% | kinetic criterion (.chi.) = 1-.phi.t/.phi.c [4, 21]: 0.17 | ELS (extension of average life span) ([4]; single dose 300 mg/kg i/p, days 1,5,9): 60% | LD50 ([5]; mouse, in vivo, ip, mice, intraperitoneal, I, II, III as emulsion in 10% aqueous Tween-80, IV, Ftorafur, 5-fluorouracyl as aqueous solutions): 640 mg/kg | Inhibition of tumor volume gain ([6]; single dose 300 mg/kg, days 1,5,9, mode of grafting printed i/p): 10% | activity in respect of Walker carcinosarcoma [7]: rather high activity | inhibition of tumor growth, in words [8]: no antitumor activity | activity in respect of sarcoma 180 [9]: rather high activity | Inhibition of tumor volume gain ([10]; single dose 90 mg/kg i/p): 15%

CC1(C)C=C(C(=O)n2c(=O)[nH]cc(F)c2=O)C(C)(C)N1[O] [IV, sodium salt of 3-(2,2,5,5-tetramethyl-1-oxyl-Δ^3-pyrrolin-3-oyl)-5-fluorouracyl]
Inhibition of tumor volume gain [11, 22]: 70% | kinetic criterion (.chi.) = 1-.phi.t/.phi.c [11, 22]: 0.3 | antitumor activity, adenocarcinoma 755, in words ([11]; mouse, in vivo): considerable antitumor activity | Chemotherapeutic index I100 = LD10/ED100 ([12]; P-388, BDF1 mice, i/p, days 1,3,5,7,9): 4,2 | ELS (extension of average life span) ([12]; P-388, BDF1 mice, single dose 75 mg/kg i/p, days 1-7): 90% | ELS (extension of average life span) ([12]; P-388, BDF1 mice, single dose 100 mg/kg i/p, days 1,3,5,7,9): 100% | antitumor activity, leukemia P-388, in words ([12]; mouse, in vivo): high antitumor activity | reaction of aqueous solutions [13]: alkaline reaction | Chemotherapeutic index I60 = LD10/ED60 ([4]; days 1,3,5,7,9): 4,2 | kinetic criterion (.chi.) = 1-.phi.t/.phi.c ([4]; single dose 75 mg/kg i/p, days 1-7 after grafting): 0,7 | ELS (extension of average life span) ([4]; single dose 75 mg/kg i/p, days 1-7 after grafting, control life span 6,5 days): 80% | ELS (extension of average life span) ([4]; single dose 100 mg/kg i/p, days 1,3,5,7,9, control life span 6,5 days): 60% | chemotherapeutic index I60 relative to that of 5-fluorouracyl, fold ([4]; leukemia La): 1.2 time | chemotherapeutic index I60 relative to that of Ftorafur, fold ([4]; leukemia La): 2 times | therapeutic effect compared with 5-fluorouracyl, in words ([4]; leukemia La): comparable with that of 5-fluorouracyl | effectiveness superior to Ftorafur, fold ([4]; leukemia La, equitoxic doses, comparable treatment schedules): 5 times | toxicity in words ([5]; general statement): low toxicity | toxicity compared with Ftorafur, in words ([5]; mice, i/p): approach toxicity of Ftorafur | less toxic than 5-fluorouracyl, fold ([5]; mice, i/p, relative to 5-fluorouracyl): 5 times | Toxicity, LD50 ([5]; mice, intraperitoneal, I, II, III as emulsion in 10% aqueous Tween-80, IV, Ftorafur, 5-fluorouracyl as aqueous solutions): 510 mg/kg | Inhibition of tumor volume gain ([6]; single dose 75 mg/kg i/p, days 1-10): 30% | effectiveness relative to Ftorafur, fold ([6]; melanoma B-16, comparable doses and treatment procedures): 3 times | antileukemic effect, in words ([14]; in vivo): high antileukemic activity | effect on solid tumors, in words ([14]; solid tumors): most active; also recorded: high antitumor activity in respect of solid tumors | inhibition of tumor growth, in words [8]: considerable inhibition of the tumor growth | stability against hydrolysis [15]: do not undergo any noticeable hydrolytical decomposition | inhibition of leukemia La (spleen mass gain), in words ([16]; C 57 B1 mice, daily over seven days): most effective in inhibition of leukemia La | activity relative to 5-fluorouracyl (spleen mass gain), in words [16]: by several times superior | effectiveness relative to Ftorafur and 5-fluorouracyl, fold ([10]; comparable doses and treatment procedures): 2-3 times | Inhibition of tumor volume gain ([10]; single dose 75 mg/kg i/p): 45% | Chemotherapeutic index I60 = LD10/ED60 ([17]; L-1210, BDF1 mice, i/p, days 1-7): 5,6 | ELS (extension of average life span) ([17]; L-1210, BDF1 mice, single dose 65 mg/kg i/p, days 1-9): 100% | ELS (extension of average life span) ([17]; L-1210, BDF1 mice, single dose 75 mg/kg i/p, days 1-7): 60% | antitumor activity, leukemia L-1210, in words ([17]; mouse, in vivo): high antitumor activity | solubility in water [18]: very well soluble in water | Inhibition of tumor volume gain ([19]; WCS, mongrel rats, single dose 60 mg/kg i/p, days 1-10): 75% | antitumor activity, Walker carcinosarcoma, in words ([19]; rat, in vivo): considerable antitumor activity | Inhibition of tumor volume gain [20]: 20%

Reference: patent publication US4558127A, “5-Fluorouracil nitroxyl derivatives possessing antitumor activity” (priority 1984, dated 1985)
